Results published in patent publication US20260207585A1, “METHODS AND COMPOSITIONS FOR THE TREATMENT OF PARKINSON'S DISEASE, HUNTINGTON'S DISEASE, AMYOTROPHIC LATERAL SCLEROSIS, AND LEARNING DISORDERS” (Cedars-Sinai Medical Center, priority 2022, published 2026).
Like-named read-outs stand apart in the source and are kept apart here.

Legend:
DOT1L = DOT1L (Homo sapiens, UniProt Q8TEK3); experiment: Methyltransferase inhibition panel: DOT1L; format: biochemical
Method: (§1) The ability of ETP69 to inhibit methyltransferases was tested.

MLL1 Complex = MLL1 Complex (Homo sapiens, UniProt Q03164); experiment: Methyltransferase inhibition panel: MLL1 Complex; format: biochemical
MLL1 Complex, sequence (Q03164 3745-3969): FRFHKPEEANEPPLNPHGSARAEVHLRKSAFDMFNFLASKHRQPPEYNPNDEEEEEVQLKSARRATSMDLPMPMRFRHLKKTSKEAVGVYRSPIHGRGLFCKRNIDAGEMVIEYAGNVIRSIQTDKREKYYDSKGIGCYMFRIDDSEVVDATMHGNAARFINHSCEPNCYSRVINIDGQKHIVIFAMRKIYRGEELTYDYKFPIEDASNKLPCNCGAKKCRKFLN
MLL1 Complex, sequence (Q9UBL3 96-628, further chain): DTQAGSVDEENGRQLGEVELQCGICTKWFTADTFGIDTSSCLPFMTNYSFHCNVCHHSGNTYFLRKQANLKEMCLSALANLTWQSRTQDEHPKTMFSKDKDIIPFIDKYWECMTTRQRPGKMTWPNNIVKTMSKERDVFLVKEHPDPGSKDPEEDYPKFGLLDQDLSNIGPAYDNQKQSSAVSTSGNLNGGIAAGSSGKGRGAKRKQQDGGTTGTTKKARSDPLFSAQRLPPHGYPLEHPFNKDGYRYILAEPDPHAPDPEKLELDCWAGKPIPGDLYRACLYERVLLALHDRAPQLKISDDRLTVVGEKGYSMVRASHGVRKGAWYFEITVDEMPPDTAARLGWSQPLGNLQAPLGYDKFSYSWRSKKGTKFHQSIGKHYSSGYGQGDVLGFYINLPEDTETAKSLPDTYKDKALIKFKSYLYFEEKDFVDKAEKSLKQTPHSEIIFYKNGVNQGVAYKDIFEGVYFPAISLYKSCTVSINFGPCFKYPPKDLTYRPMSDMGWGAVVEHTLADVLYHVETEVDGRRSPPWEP
MLL1 Complex, sequence (Q9C005 whole entry, further chain): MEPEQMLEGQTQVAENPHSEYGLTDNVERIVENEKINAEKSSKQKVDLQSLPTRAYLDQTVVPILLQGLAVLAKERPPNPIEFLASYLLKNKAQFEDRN
MLL1 Complex, sequence (Q15291 whole entry, further chain): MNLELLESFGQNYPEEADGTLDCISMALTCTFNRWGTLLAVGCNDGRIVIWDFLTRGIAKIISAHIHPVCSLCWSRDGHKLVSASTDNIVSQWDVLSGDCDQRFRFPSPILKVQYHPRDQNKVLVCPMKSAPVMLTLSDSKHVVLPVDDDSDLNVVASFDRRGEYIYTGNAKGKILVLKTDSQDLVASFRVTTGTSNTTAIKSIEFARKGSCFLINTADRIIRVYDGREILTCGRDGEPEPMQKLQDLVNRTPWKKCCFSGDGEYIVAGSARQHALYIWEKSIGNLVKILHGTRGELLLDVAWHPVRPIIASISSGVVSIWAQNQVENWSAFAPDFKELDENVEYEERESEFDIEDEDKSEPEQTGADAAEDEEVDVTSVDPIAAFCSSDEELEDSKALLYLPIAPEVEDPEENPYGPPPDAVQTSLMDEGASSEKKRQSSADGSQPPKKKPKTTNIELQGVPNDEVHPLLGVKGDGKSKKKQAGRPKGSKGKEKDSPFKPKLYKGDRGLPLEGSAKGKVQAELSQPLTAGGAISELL
Method: as §1

MLL3 Complex = MLL3 Complex (Homo sapiens, UniProt Q8NEZ4); experiment: Methyltransferase inhibition panel: MLL3 Complex; format: biochemical
MLL3 Complex, sequence (Q15291 whole entry): as the sequence (Q15291 whole entry, further chain) above
MLL3 Complex, sequence (Q8NEZ4 4689-4911): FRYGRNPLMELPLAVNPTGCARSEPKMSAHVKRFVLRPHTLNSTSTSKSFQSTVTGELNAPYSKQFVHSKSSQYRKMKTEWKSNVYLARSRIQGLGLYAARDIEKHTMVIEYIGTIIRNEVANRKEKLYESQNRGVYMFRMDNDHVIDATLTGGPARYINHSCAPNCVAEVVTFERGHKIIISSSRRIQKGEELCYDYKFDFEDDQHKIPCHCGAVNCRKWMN
MLL3 Complex, sequence (Q9UBL3 96-628, further chain): as the sequence (Q9UBL3 96-628, further chain) above
MLL3 Complex, sequence (Q9C005 whole entry, further chain): as the sequence (Q9C005 whole entry, further chain) above
Method: as §1

PRMT5/MEP50 Complex = PRMT5/MEP50 Complex (Homo sapiens, UniProt O14744); experiment: Methyltransferase inhibition panel: PRMT5/MEP50 Complex; format: biochemical
PRMT5/MEP50 Complex, sequence (O14744 whole entry): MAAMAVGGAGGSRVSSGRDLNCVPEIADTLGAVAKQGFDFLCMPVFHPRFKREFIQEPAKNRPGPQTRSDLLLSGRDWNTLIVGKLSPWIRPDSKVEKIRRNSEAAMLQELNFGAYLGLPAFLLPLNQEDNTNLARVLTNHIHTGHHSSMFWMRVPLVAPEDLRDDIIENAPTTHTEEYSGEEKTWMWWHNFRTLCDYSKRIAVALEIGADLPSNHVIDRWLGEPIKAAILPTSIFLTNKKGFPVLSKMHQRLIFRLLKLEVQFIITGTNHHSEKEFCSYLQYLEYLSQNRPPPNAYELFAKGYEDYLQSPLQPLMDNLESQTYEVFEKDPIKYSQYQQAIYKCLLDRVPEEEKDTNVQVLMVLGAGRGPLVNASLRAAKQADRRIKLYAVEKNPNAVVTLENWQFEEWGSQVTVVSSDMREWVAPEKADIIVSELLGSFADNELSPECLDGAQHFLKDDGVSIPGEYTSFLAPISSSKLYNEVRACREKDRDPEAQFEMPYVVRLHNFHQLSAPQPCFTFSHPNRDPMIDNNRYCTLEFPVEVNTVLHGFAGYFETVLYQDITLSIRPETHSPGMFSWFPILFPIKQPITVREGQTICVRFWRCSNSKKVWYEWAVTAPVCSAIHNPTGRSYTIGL
PRMT5/MEP50 Complex, sequence (Q9BQA1 whole entry partner): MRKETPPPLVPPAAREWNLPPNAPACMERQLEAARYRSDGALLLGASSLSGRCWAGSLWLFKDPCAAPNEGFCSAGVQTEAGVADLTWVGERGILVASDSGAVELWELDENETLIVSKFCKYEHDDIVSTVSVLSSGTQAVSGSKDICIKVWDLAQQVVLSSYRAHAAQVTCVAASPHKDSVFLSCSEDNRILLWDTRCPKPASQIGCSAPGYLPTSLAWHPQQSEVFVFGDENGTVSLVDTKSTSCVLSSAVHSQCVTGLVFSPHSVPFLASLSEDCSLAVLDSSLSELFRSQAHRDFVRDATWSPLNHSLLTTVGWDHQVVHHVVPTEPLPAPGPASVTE
Method: as §1

SET7/9 = target: T1, SET7/9 (Homo sapiens, UniProt Q8WTS6); experiment: Methyltransferase inhibition panel: SET7/9; format: biochemical
T1 sequence (Q8WTS6 1-366): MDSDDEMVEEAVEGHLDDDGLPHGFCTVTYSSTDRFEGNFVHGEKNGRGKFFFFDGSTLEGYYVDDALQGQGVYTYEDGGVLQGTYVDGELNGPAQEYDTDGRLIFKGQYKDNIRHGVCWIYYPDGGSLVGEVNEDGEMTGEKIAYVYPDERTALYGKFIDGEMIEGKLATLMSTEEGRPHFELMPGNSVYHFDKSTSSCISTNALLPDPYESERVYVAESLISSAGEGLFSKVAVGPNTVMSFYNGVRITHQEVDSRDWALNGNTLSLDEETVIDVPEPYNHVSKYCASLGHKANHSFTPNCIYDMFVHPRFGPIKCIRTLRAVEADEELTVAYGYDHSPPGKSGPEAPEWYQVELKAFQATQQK
Method: as §1

SUV420H1TV2 = SUV420H1TV2 (Homo sapiens, UniProt Q4FZB7); experiment: Methyltransferase inhibition panel: SUV420H1TV2; format: biochemical
SUV420H1TV2, sequence (Q4FZB7 1-393 isoform Q4FZB7-2): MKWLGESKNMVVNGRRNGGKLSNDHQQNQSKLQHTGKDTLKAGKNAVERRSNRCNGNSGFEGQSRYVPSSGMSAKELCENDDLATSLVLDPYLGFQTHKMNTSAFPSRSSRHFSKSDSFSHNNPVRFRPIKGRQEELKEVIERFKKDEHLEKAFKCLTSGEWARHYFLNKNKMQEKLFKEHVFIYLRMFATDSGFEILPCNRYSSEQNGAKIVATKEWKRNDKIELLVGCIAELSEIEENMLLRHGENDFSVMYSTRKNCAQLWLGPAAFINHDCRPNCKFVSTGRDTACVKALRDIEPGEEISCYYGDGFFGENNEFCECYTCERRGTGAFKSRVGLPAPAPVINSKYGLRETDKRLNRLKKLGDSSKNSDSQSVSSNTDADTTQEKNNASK
Method: as §1

H3K9me3 = H3K9me3 staining in cingulate/cerebral cortex and hippocampus; format: in vivo, mice; set-up: reduction of H3K9me3 IR area / reduction of hippocampal H3K9me3 levels: concentration or dose not given beside the values; conditions: for reduction of hippocampal H3K9me3 levels: 15 days after injection; for decrease in neuronal H3K9me3 irradiance: cingulate cortex; for reduction of H3K9me3 IR area: cortex
Method: The experimental protocol is depicted in FIG. 2A. Mice were treated with ETP69 or DMSO. After 2 days, they were tested on the color X-maze. At day 12, they were tested on the Barnes maze. On day 14, they were tested for fear conditioning. Brain tissue was isolated as depicted for analysis of H3K9me3 staining on days 4 and 15, as depicted in FIG. 2B-2D. Levels of H3K9me3 correlated with the percent of alterations at day 4 as depicted in FIG. 2E. At day 15, H3K9me3 was decreased in mice treated with ETP69 as compared to mice treated with DMSO. Levels of H3K9me3 was decreased in both the cingulate cortex and the hippocampus at 4 and 15 days (FIGS. 2J-2M).
The effects of single and repeated ETP69 injections in mice were tested. The experimental timeline is depicted in FIG. 5. Three parallel injection conditions were tested: a single ETP69 condition, a boosted ETP69 injection, and repeated ETP69 injections. The single injection mice received one injection of ETP69 or DMSO at Day 0. The mice that received a boosted injection received one injection of ETP69 or DMSO at day 0 and one injection at day 9. The mice that received repeated injections received 11 injections of ETP69 or DMSO at day 0 or day 9. Both wildtype and AD model (APP/PS1-transgenic) mice were tested.
AD+ brains were stained for neuronal H3K9me3 and DAPI. Representative images of the cingulate cortex and hippocampus of DMSO and ETP69 treated mice are depicted in FIGS. 8A and 8C, respectively. Neuronal H3K9me3 irradiance in the cingulate cortex is quantified in FIG. 8B. […] H3K9me3 staining in the DG correlated with performance in the Barnes Test, while K3K9me3 staining in the hippocampus was correlated with performance in the fear conditioning test.
The effects of ETP69 on cerebral H3K9me3 levels was tested in old mice, in both a neurodegenerative model and WT siblings. The levels of brain H3K9me3 at days 4 (short-term) and 15 (long-term) following i.p. ETP69 injection (S regimen cohorts) were measured. […] These findings indicate that a single dose of ETP69 is sufficient to sustainably reduce H3K9me3 in the brains of old WT and neurodegenerative mice. Consistent with the observations in 18-month-old mice, ETP69 mitigated neuroinflammation, including by reduced ionized calcium-binding adaptor molecule 1 (Iba-1)^+ microgliosis in neurodegenerative mice (40%, p=0.0021; FIG. 16D).

6E10 = 6E10 staining of brain sections; format: in vivo; conditions: AD+ mice; 4 and 15 days
Excerpt: ETP69 administration reduced AD-related brain pathology (FIGS. 9A-9C). Brain sections were stained for H3K9me3, 6E10 and GFAP.

PSD95 = PSD95 irradiance in brain; set-up: species or system mice; conditions: mouse, in vivo
Delivery to the brain = conditions: in vivo
[1] = read-out: Enzyme % Activity (relative to DMSO controls) Data 1
[2] = read-out: Enzyme % Activity (relative to DMSO controls) Data 2
[3] = NT1721 20 μM, substrate Nucleosomes 0.05 mg/mL

DOT1L, sequence (Q8TEK3 whole entry): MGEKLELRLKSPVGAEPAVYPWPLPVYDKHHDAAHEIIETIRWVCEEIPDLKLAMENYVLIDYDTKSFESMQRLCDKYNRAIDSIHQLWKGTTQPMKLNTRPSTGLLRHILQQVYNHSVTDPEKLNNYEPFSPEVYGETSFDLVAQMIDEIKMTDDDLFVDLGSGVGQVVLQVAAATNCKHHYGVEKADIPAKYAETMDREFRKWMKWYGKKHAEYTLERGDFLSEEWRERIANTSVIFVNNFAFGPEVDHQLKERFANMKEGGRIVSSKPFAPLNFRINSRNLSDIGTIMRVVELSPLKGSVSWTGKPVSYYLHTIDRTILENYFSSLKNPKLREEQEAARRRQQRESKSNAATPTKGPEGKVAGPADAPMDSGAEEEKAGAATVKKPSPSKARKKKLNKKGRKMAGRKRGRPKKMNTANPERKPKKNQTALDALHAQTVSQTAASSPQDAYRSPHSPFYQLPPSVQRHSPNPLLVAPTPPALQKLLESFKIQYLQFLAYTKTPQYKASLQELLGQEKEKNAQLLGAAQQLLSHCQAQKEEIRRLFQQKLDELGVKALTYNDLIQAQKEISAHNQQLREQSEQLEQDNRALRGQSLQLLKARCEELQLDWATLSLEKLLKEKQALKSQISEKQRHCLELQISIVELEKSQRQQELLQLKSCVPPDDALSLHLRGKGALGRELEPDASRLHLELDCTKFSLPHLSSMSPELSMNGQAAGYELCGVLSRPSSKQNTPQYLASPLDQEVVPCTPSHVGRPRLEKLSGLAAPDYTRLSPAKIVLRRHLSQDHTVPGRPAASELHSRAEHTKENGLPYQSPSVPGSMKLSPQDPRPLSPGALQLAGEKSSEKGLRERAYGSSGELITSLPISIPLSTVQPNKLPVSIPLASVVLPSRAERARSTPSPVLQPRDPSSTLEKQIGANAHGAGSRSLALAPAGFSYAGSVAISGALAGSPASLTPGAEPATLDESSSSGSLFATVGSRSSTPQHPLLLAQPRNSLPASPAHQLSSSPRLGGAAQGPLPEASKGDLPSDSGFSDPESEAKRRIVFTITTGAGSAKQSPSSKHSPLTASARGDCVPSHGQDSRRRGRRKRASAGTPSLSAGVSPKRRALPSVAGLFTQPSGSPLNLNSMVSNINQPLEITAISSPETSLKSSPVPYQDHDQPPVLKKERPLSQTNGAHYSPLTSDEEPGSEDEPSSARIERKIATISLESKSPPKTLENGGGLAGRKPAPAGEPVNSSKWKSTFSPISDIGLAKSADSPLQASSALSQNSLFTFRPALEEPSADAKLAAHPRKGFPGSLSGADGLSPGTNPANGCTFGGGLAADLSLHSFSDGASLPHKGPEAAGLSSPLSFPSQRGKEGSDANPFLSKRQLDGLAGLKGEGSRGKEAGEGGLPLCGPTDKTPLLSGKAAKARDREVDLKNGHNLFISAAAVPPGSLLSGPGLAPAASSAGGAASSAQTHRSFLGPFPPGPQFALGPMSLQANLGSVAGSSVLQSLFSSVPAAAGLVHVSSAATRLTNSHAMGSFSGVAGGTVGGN

## CN1C(=O)[C@@]23C[C@](C)(C#N)[C@H](c4ccc5c(c4)OCO5)N2C(=O)[C@]1(C)SS3 (racemic) [ETP69, Rac-(3S,6S,7S,8aS)-6-(benzo[d][1,3]dioxol-5-yl)-2,3,7-trimethyl-1,4-dioxohexahydro-6H-3,8a-epidithiopyrrolo[1,2-a]pyrazine-7-carbonitrile]
DOT1L; [1]
  remaining activity at 20 µM: 104%
DOT1L; [2]
  remaining activity at 20 µM: 98.5%
MLL1 Complex; [3]
  Enzyme % Activity (relative to DMSO controls) Data 1: 5.08%
  Enzyme % Activity (relative to DMSO controls) Data 2: 5.33%
MLL1 Complex; summary of Table 1
  inhibition relative to DMSO controls: at least 7500
MLL3 Complex; [1]
  remaining activity at 20 µM: 36.6%
MLL3 Complex; [2]
  remaining activity at 20 µM: 32.6%
MLL3 Complex; summary of Table 1
  inhibition relative to DMSO controls: at least 7500
PRMT5/MEP50 Complex; [1]
  remaining activity at 20 µM: 92.2%
PRMT5/MEP50 Complex; [2]
  remaining activity at 20 µM: 93.1%
SET7/9; [1]
  remaining activity at 20 µM: 107%
SET7/9; [2]
  remaining activity at 20 µM: 107%
SUV420H1TV2; [1]
  remaining activity at 20 µM: 91.5%
SUV420H1TV2; [2]
  remaining activity at 20 µM: 90%
H3K9me3; CA, WT mice
  reduction of hippocampal H3K9me3 levels: 36%
H3K9me3; CA, neurodegenerative mice
  reduction of hippocampal H3K9me3 levels: 54%
H3K9me3; DG, neurodegenerative mice
  reduction of hippocampal H3K9me3 levels: 42%
H3K9me3; cingulate cortex and hippocampus, 4 and 15 days
  Levels of H3K9me3: decreased
H3K9me3; AD+ mice, day 4
  decrease in neuronal H3K9me3 irradiance: 40%
H3K9me3; AD+ mice, day 14
  decrease in neuronal H3K9me3 irradiance: 40%
H3K9me3; wildtype mice, day 4
  decrease in neuronal H3K9me3 irradiance: 27%
H3K9me3; WT old mice, 4 days after single i.p. injection
  reduction of H3K9me3 IR area: 27%
H3K9me3; neurodegenerative mice, after 15 days
  reduction of H3K9me3 IR area: 40%
H3K9me3; neurodegenerative old mice, 4 days after single i.p. injection
  reduction of H3K9me3 IR area: 40%
H3K9me3; day 15, vs mice treated with DMSO
  H3K9me3: decreased
H3K9me3; hippocampus, AD+ mice, vs AD+ mice administered DMSO
  decrease in H3K9me3 irradiance: 47%
H3K9me3; neurons, astrocytes, and microglia macrophages, AD+ mice
  H3K9 expression (H3K9me3 repression mark), cell-specific: reduced
6E10
  6E10: significant decrease
PSD95
  expression of PSD95 irradiance: increased
Delivery to the brain
  delivery to the brain: good delivery to the brain
